What all share (format): functional
One test has as its system Fusarium solani. The test is described as follows: Antimicrobial activity against Fusarium solani after 48 hrs by broth microdilution assay. On the technique in general: Broth dilution looks for growth in wells or tubes with falling amounts of substance.
A further test relates to Fusarium verticillioides. The test is described as follows: Antimicrobial activity against Fusarium verticillioides after 48 hrs by broth microdilution assay.
The test system of the next test is Fusarium proliferatum. As to the kind of experiment: Antimicrobial activity against Fusarium proliferatum after 48 hrs by broth microdilution assay.
The subject of a further test is Fusarium subglutinans. As to the kind of experiment: Antimicrobial activity against Fusarium subglutinans after 48 hrs by broth microdilution assay.
Another test concerns Fusarium oxysporum. The test is described as follows: Antimicrobial activity against Fusarium oxysporum after 48 hrs by broth microdilution assay.

Values after ≈ are worked out from the molar mass of the structure shown. Bounds are passed on as bounds.

Among the data in ChEMBL document CHEMBL1255374, “Species distribution and in vitro antifungal susceptibility patterns of 75 clinical isolates of Fusarium spp. from northern Italy” (2008) are MIC values, retold here.

What is called MIC is the smallest concentration in the dilution series that meets the test's criterion for growth inhibition. The low end stands for a more susceptible organism, the high end for a less susceptible organism.

In the case of `C[C@@H]1[C@H](O)[C@@H](C)/C=C/C=C/C=C/C=C/C=C/C=C/C=C/[C@H](O[C@@H]2O[C@H](C)[C@@H](O)[C@H](N)[C@@H]2O)C[C@@H]2O[C@](O)(C[C@@H](O)C[C@@H](O)[C@H](O)CC[C@@H](O)C[C@@H](O)CC(=O)O[C@H]1C)C[C@H](O)[C@H]2C(=O)O` [AMPHOTERICIN B], the MIC against Fusarium solani came to 1.25 µg/mL (≈ 1.35 µM); in the test with Fusarium verticillioides, 1.53 µg/mL (≈ 1.66 µM); in the test on Fusarium proliferatum, 1.7 µg/mL (≈ 1.84 µM); in the test on Fusarium subglutinans it was 3.3 µg/mL (≈ 3.57 µM); in the test with Fusarium oxysporum, 2.3 µg/mL (≈ 2.49 µM).

`C[C@@H](c1ncncc1F)[C@](O)(Cn1cncn1)c1ccc(F)cc1F` [VORICONAZOLE]: the MIC against Fusarium solani worked out at 9.21 µg/mL (≈ 26.4 µM); in the test on Fusarium verticillioides, 1.74 µg/mL (≈ 4.98 µM); in the test with Fusarium proliferatum it was 4.2 µg/mL (≈ 12 µM); against Fusarium subglutinans it was 5.6 µg/mL (≈ 16 µM); in the test with Fusarium oxysporum, 4 µg/mL (≈ 11.5 µM).

For the compound `CCC(C)n1ncn(-c2ccc(N3CCN(c4ccc(OCC5COC(Cn6cncn6)(c6ccc(Cl)cc6Cl)O5)cc4)CC3)cc2)c1=O` (stereo not given) [ITRACONAZOLE], the MIC with Fusarium solani was above 16 µg/mL; against Fusarium verticillioides, 3.33 µg/mL (≈ 4.72 µM); with Fusarium proliferatum, above 16 µg/mL; in the test on Fusarium subglutinans it was 10.8 µg/mL (≈ 15.3 µM); against Fusarium oxysporum, above 16 µg/mL.

Take `CC[C@@H]([C@H](C)O)n1ncn(-c2ccc(N3CCN(c4ccc(OC[C@@H]5CO[C@@](Cn6cncn6)(c6ccc(F)cc6F)C5)cc4)CC3)cc2)c1=O` [POSACONAZOLE]: the MIC amounted to 15.2 µg/mL (≈ 21.7 µM) against Fusarium solani; 0.46 µg/mL (≈ 0.656 µM) in the test on Fusarium verticillioides; 6.4 µg/mL (≈ 9.13 µM) against Fusarium proliferatum; 10.8 µg/mL (≈ 15.3 µM) with Fusarium subglutinans; 2.7 µg/mL (≈ 3.85 µM) in the test with Fusarium oxysporum.
